The target in experiment [1] is glucosylceramide synthase (GCS) (Canis lupus familiaris, UniProt A0A8I3MXG6). Put plainly: GCS Enzymatic Assay (MDCK lysates). It counts as biochemical, canine. The conditions noted are these: MDCK cell lysate, C6-NBD-Ceramide, 37° C. for 1 hour, LC/MS; read-out: Assay 1 (Enzyme Assay; MDCK lysates) IC50.
Experiment [2] relates to K562 cells. Put plainly: K562 Cell-Based Assay. The conditions noted are these: Homo sapiens, NBD-Ceramide, LCMS, read-out: Assay 2 (Cellular Assay; K562 cells) IC50. As for the experimental part: This assay was modified based on the study by Gupta et al. (J. Lipid Res. 2010, 51, 866). K562 cells were seeded into 12-well plates at 3×10^5 cells/well/mL in RPMI-1640 medium with 5% FBS and incubated at 37° C. for 24 h. One μL of a compound described herein at desired concentration (10 mM, 1 mM, 0.1 mM, 0.01 mM, 0.001 mM and 0.0001 mM in DMSO) or DMSO was added into the corresponding well and mixed. Cells were incubated at 37° C. for 4 h. Then 100 μL of RPMI-1640 medium containing 110 μM of NBD-Ceramide, 11% BSA, 5% FBS, and corresponding concentration of a compound described herein was added into each well and mixed. Cells were incubated for additional 0.5 h at 37° C., followed by washing the cells with ice-cold PBS (pH 7.4) twice with centrifugation and resuspended with 50 μL cold PBS+1% Triton X-100. The cell lysate was sonicated for 15 min before adding equal volume of methanol for LCMS analysis. A small aliquot of cell lysate was used to determine protein concentration by BCA assay kit. The HPLC equipment and methods used in Assay 1 were used in this assay as well and IC50's were calculated.

Sequence of glucosylceramide synthase (GCS) (A0A8I3MXG6 1-394): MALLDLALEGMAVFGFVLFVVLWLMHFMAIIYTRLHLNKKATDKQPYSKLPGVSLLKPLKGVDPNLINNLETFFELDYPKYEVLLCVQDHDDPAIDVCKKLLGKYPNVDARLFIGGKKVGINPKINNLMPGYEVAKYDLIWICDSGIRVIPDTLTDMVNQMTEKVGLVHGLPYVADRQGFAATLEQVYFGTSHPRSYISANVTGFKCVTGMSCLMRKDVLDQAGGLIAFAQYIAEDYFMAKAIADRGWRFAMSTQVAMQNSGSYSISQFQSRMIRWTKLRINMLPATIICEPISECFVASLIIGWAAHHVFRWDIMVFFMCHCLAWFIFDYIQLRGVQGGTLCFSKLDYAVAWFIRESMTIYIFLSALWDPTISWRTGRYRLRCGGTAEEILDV

As to `O=C(N[C@H](CN1CCCC1)[C@H](O)c1ccc(OC2CC2)c(F)c1)C1=NOCc2c1ccc1cc(Cl)sc21` [Example 47, 2-chloro-N-((1R,2R)-1-(4-cyclopropoxy-3-fluorophenyl)-1-hydroxy-3-(pyrrolidin-1-yl)propan-2-yl)-9H-thieno[2′,3′:3,4]benzo[1,2-d][1,2]oxazine-6-carboxamide], the IC50 in experiment [1] was < 0.01 µM; in experiment [2], ≤ 0.01 µM.
